Like-named read-outs stand apart in the source and are kept apart here.
How the values were obtained:
human hepatoma G2 cells = assay: Cytotoxicity assay (XTT colorimetric), Hep G2; assay type: cell-based; conditions: 48 h of drug exposure
rat glioma C6 cells = assay: Cytotoxicity assay (XTT colorimetric), C6 cells; assay type: cell-based; conditions: 48 h of drug exposure
[1] = tested on: hepatitis B virus transfected hepatoma cell lines, HepG 2.2.15 cells; assay: Cytotoxicity assay, 2.2.15 cells; assay type: cell-based, human; conditions: 48 h of drug exposure
[2] = tested on: transcriptional activity of hTERT; assay: SEAP reporter assay of hTERT expression, PhTERT-SEAP (hTERT-BJ1); assay type: cell-based, human; conditions: hTERT-BJ1
In short: (§1)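 Cells seeded, grown 24 h at 37° C, refed, then exposed to varying drug amounts for another 24 h. Collected media heated 65° C for 10 min to kill heat-labile phosphatases, mixed with equal SEAP buffer (2 M diethanolamine, 1 mM MgCl2, 20 mM […]) plus 12 mM final p-nitrophenyl phosphate; rate of A405 increase measured.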

[3] = tested on: transcriptional activity of hTERT; assay: SEAP reporter assay of hTERT expression, PhTERT-SEAP (H1299); assay type: cell-based, human; conditions: hTERT-H1299
In short: as §1

[4] = tested on: non-small-cell lung cancer cells H1299

Q: Which IC50 (human hepatoma G2 cells) does the source give for `O=C1c2cccc(NCCCCO)c2C(=O)c2cccc(NCCCCO)c21` [IVk, 1,5-Bis(butanolamino-)-anthraquinone] here?
A: > 20 µM

Q: What about the IC50 (rat glioma C6 cells) of the same compound?
A: > 20 µM

Q: What about the IC50 [1] of the same compound?
A: 10.3 ± 0.24 µM

Q: And the “Relative SEAP activity (%)” value ([2]; 2.6 μM)?
A: 114 ± 20.5%

Q: What about the “Relative SEAP activity (%)” value ([2]; 26 μM) of the same compound?
A: 113 ± 21.6%

Q: What about the “Relative SEAP activity (%)” value ([2]; 265 μM) of the same compound?
A: 127 ± 19.9%

Q: And the “Relative SEAP activity (%)” value ([3]; 2.6 μM)?
A: 89 ± 4.9%

Q: What about the “Relative SEAP activity (%)” value ([3]; 26 μM) of the same compound?
A: 71 ± 9.8%

Q: And the “Relative SEAP activity (%)” value ([3]; 265 μM)?
A: 27 ± 2.0%

Q: And the “Relative MTT viability (%)” value (hTERT-BJ1 cells; 2.6 µM)?
A: 101 ± 10.5%

Q: What about the “Relative MTT viability (%)” value (hTERT-BJ1 cells; 26 µM) of the same compound?
A: 101 ± 8.8%

Q: And the “Relative MTT viability (%)” value (hTERT-BJ1 cells; 265 µM)?
A: 91 ± 11.8%

Q: And the “Relative MTT viability (%)” value ([4]; 2.6 µM)?
A: 114 ± 8.1%

Q: And the “Relative MTT viability (%)” value ([4]; 26 µM)?
A: 110 ± 7.1%

Q: And the “Relative MTT viability (%)” value ([4]; 265 µM)?
A: 16 ± 3.4%
